“And” between values parts separate entries of the source, which are not always exact repeats. Identical values can stand only once.
Tested on: cos-7 cells
Test: DNA transfection: luciferase expression relative to Lipofectamine 2000
Format: cell-based
Conditions: lipid/DNA 2.5 w/w; 300 ng Luciferase DNA per well; luciferase assay after 48 hours
How it was run: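 cos-7 cells were transfected with 300 ng/well luciferase DNA complexed with lipid at ratios from 2.5 to 25 w/w. Bright-Glo luminescence was read after 48 hours and converted to ng luciferase by standard curve. Data are percent of the Lipofectamine 2000 control (2.5 w/w).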

| SMILES | Luciferase expression as a percentage of that achieved using Lipofectamine 2000 |
| --- | --- |
| CCCCCCCCCCCCCCCOC(=O)CCN(CCCN(CCO)CCO)CCC(=O)OCCCCCCCCCCCCCCC [LG87] | 14.5% |
| CCCCCCCCCCCCCCCOC(=O)CCN(CCC(=O)OCCCCCCCCCCCCCCC)CCN1CCOCC1 [LG90] | 0.1% and 0.6% |
| CCCCCCCCCCCCCCCOC(=O)CCN(CCCN1CCOCC1)CCC(=O)OCCCCCCCCCCCCCCC [LG91] | 0.2% |
| CCCCCCCCCCCCCCCCCCOC(=O)CCN(CCCOC)CCC(=O)OCCCCCCCCCCCCCCCCCC [LH1] | 0.0% |
| CCCCCCCCCCCCCCCCCCOC(=O)CCN(CCC(=O)OCCCCCCCCCCCCCCCCCC)CCC1OCCO1 [LH6] | 0.0% |
| CCCCCCCCCCCCCCCCCCOC(=O)CCN(CCC(=O)OCCCCCCCCCCCCCCCCCC)CC1COC(C)(C)O1 (centres unmarked) [LH7] | 0.0% |
| CCCCCCCCCCCCCCCCCCOC(=O)CCN(CCOC)CCC(=O)OCCCCCCCCCCCCCCCCCC [LH10] | 0.0% |
| CCCCCCCCCCCCCCCCCCOC(=O)CCN(CCOCC)CCC(=O)OCCCCCCCCCCCCCCCCCC [LH11] | 0.0% |

Same assay, conditions: lipid/DNA 5 w/w; 300 ng Luciferase DNA per well; luciferase assay after 48 hours

| SMILES | Luciferase expression as a percentage of that achieved using Lipofectamine 2000 |
| --- | --- |
| CCCCCCCCCCCCCCCOC(=O)CCN(CCCN(CCO)CCO)CCC(=O)OCCCCCCCCCCCCCCC [LG87] | 7.5% |
| CCCCCCCCCCCCCCCOC(=O)CCN(CCC(=O)OCCCCCCCCCCCCCCC)CCN1CCOCC1 [LG90] | 0.1% and 0.6% |
| CCCCCCCCCCCCCCCOC(=O)CCN(CCCN1CCOCC1)CCC(=O)OCCCCCCCCCCCCCCC [LG91] | 0.2% |
| CCCCCCCCCCCCCCCCCCOC(=O)CCN(CCCOC)CCC(=O)OCCCCCCCCCCCCCCCCCC [LH1] | 0.0% |
| CCCCCCCCCCCCCCCCCCOC(=O)CCN(CCC(=O)OCCCCCCCCCCCCCCCCCC)CCC1OCCO1 [LH6] | 0.0% |
| CCCCCCCCCCCCCCCCCCOC(=O)CCN(CCC(=O)OCCCCCCCCCCCCCCCCCC)CC1COC(C)(C)O1 (centres unmarked) [LH7] | 0.0% |
| CCCCCCCCCCCCCCCCCCOC(=O)CCN(CCOC)CCC(=O)OCCCCCCCCCCCCCCCCCC [LH10] | 0.0% |
| CCCCCCCCCCCCCCCCCCOC(=O)CCN(CCOCC)CCC(=O)OCCCCCCCCCCCCCCCCCC [LH11] | 0.0% |

Same assay, conditions: lipid/DNA 10 w/w; 300 ng Luciferase DNA per well; luciferase assay after 48 hours

| SMILES | Luciferase expression as a percentage of that achieved using Lipofectamine 2000 |
| --- | --- |
| CCCCCCCCCCCCCCCOC(=O)CCN(CCC(=O)OCCCCCCCCCCCCCCC)C(CC)(CO)CO [LG34] | 1.4% |
| CCCCCCCCCCCCCCCOC(=O)CCN(CCCN(CCO)CCO)CCC(=O)OCCCCCCCCCCCCCCC [LG87] | 9.2% |
| CCCCCCCCCCCCCCCOC(=O)CCN(CCC(=O)OCCCCCCCCCCCCCCC)CCN1CCOCC1 [LG90] | 0.0% and 0.4% |
| CCCCCCCCCCCCCCCOC(=O)CCN(CCCN1CCOCC1)CCC(=O)OCCCCCCCCCCCCCCC [LG91] | 0.1% |
| CCCCCCCCCCCCCCCCCCOC(=O)CCN(CCCOC)CCC(=O)OCCCCCCCCCCCCCCCCCC [LH1] | 0.0% |
| CCCCCCCCCCCCCCCCCCOC(=O)CCN(CCC(=O)OCCCCCCCCCCCCCCCCCC)CCC1OCCO1 [LH6] | 0.0% |
| CCCCCCCCCCCCCCCCCCOC(=O)CCN(CCC(=O)OCCCCCCCCCCCCCCCCCC)CC1COC(C)(C)O1 (centres unmarked) [LH7] | 0.0% |
| CCCCCCCCCCCCCCCCCCOC(=O)CCN(CCOC)CCC(=O)OCCCCCCCCCCCCCCCCCC [LH10] | 0.0% |
| CCCCCCCCCCCCCCCCCCOC(=O)CCN(CCOCC)CCC(=O)OCCCCCCCCCCCCCCCCCC [LH11] | 0.0% |

Same assay, conditions: lipid/DNA 15 w/w; 300 ng Luciferase DNA per well; luciferase assay after 48 hours

| SMILES | Luciferase expression as a percentage of that achieved using Lipofectamine 2000 |
| --- | --- |
| CCCCCCCCCCCCCCCOC(=O)CCN(CCC(=O)OCCCCCCCCCCCCCCC)C(CC)(CO)CO [LG34] | 0.8% |
| CCCCCCCCCCCCCCCOC(=O)CCN(CCCN(CCO)CCO)CCC(=O)OCCCCCCCCCCCCCCC [LG87] | 10.4% |
| CCCCCCCCCCCCCCCOC(=O)CCN(CCC(=O)OCCCCCCCCCCCCCCC)CCN1CCOCC1 [LG90] | 0.0% and 0.4% |
| CCCCCCCCCCCCCCCOC(=O)CCN(CCCN1CCOCC1)CCC(=O)OCCCCCCCCCCCCCCC [LG91] | 0.2% |
| CCCCCCCCCCCCCCCCCCOC(=O)CCN(CCCOC)CCC(=O)OCCCCCCCCCCCCCCCCCC [LH1] | 0.0% |
| CCCCCCCCCCCCCCCCCCOC(=O)CCN(CCC(=O)OCCCCCCCCCCCCCCCCCC)CCC1OCCO1 [LH6] | 0.0% |
| CCCCCCCCCCCCCCCCCCOC(=O)CCN(CCC(=O)OCCCCCCCCCCCCCCCCCC)CC1COC(C)(C)O1 (centres unmarked) [LH7] | 0.0% |
| CCCCCCCCCCCCCCCCCCOC(=O)CCN(CCOC)CCC(=O)OCCCCCCCCCCCCCCCCCC [LH10] | 0.0% |
| CCCCCCCCCCCCCCCCCCOC(=O)CCN(CCOCC)CCC(=O)OCCCCCCCCCCCCCCCCCC [LH11] | 0.0% |

Same assay, conditions: lipid/DNA 20 w/w; 300 ng Luciferase DNA per well; luciferase assay after 48 hours

| SMILES | Luciferase expression as a percentage of that achieved using Lipofectamine 2000 |
| --- | --- |
| CCCCCCCCCCCCCCCOC(=O)CCN(CCCN(CCO)CCO)CCC(=O)OCCCCCCCCCCCCCCC [LG87] | 5.9% |
| CCCCCCCCCCCCCCCOC(=O)CCN(CCC(=O)OCCCCCCCCCCCCCCC)CCN1CCOCC1 [LG90] | 0.1% and 0.4% |
| CCCCCCCCCCCCCCCOC(=O)CCN(CCCN1CCOCC1)CCC(=O)OCCCCCCCCCCCCCCC [LG91] | 0.1% |
| CCCCCCCCCCCCCCCCCCOC(=O)CCN(CCCOC)CCC(=O)OCCCCCCCCCCCCCCCCCC [LH1] | 0.0% |
| CCCCCCCCCCCCCCCCCCOC(=O)CCN(CCC(=O)OCCCCCCCCCCCCCCCCCC)CCC1OCCO1 [LH6] | 0.0% |
| CCCCCCCCCCCCCCCCCCOC(=O)CCN(CCC(=O)OCCCCCCCCCCCCCCCCCC)CC1COC(C)(C)O1 (centres unmarked) [LH7] | 0.0% |
| CCCCCCCCCCCCCCCCCCOC(=O)CCN(CCOC)CCC(=O)OCCCCCCCCCCCCCCCCCC [LH10] | 0.0% |
| CCCCCCCCCCCCCCCCCCOC(=O)CCN(CCOCC)CCC(=O)OCCCCCCCCCCCCCCCCCC [LH11] | 0.0% |

Same assay, conditions: lipid/DNA 25 w/w; 300 ng Luciferase DNA per well; luciferase assay after 48 hours

| SMILES | Luciferase expression as a percentage of that achieved using Lipofectamine 2000 |
| --- | --- |
| CCCCCCCCCCCCCCCOC(=O)CCN(CCCN(CCO)CCO)CCC(=O)OCCCCCCCCCCCCCCC [LG87] | 4.7% |
| CCCCCCCCCCCCCCCOC(=O)CCN(CCC(=O)OCCCCCCCCCCCCCCC)CCN1CCOCC1 [LG90] | 0.0% and 0.4% |
| CCCCCCCCCCCCCCCOC(=O)CCN(CCCN1CCOCC1)CCC(=O)OCCCCCCCCCCCCCCC [LG91] | 0.1% |
| CCCCCCCCCCCCCCCCCCOC(=O)CCN(CCCOC)CCC(=O)OCCCCCCCCCCCCCCCCCC [LH1] | 0.0% |
| CCCCCCCCCCCCCCCCCCOC(=O)CCN(CCC(=O)OCCCCCCCCCCCCCCCCCC)CCC1OCCO1 [LH6] | 0.0% |
| CCCCCCCCCCCCCCCCCCOC(=O)CCN(CCC(=O)OCCCCCCCCCCCCCCCCCC)CC1COC(C)(C)O1 (centres unmarked) [LH7] | 0.0% |
| CCCCCCCCCCCCCCCCCCOC(=O)CCN(CCOC)CCC(=O)OCCCCCCCCCCCCCCCCCC [LH10] | 0.0% |
| CCCCCCCCCCCCCCCCCCOC(=O)CCN(CCOCC)CCC(=O)OCCCCCCCCCCCCCCCCCC [LH11] | 0.0% |

Reference: patent US9006487B2, “Amine-containing lipids and uses thereof” (Massachusetts Institute of Technology, priority 2005, dated 2015)
